# Legend:
# [1] = tested on: intestinal transit in dogs; assay: Intestinal transit in dogs with duodenal and mid-gut fistulas after bolus delivery of gas to the distal gut (99mTc-DTPA recovery); format: in vivo; settings: 180 ml bolus to the distal gut at time 0, n=three dogs
# Procedure: In dogs equipped with duodenal (10 cm from pylorus) and mid-gut (160 cm from pylorus) fistulas, intestinal transit was compared across an isolated 150 cm test segment (between fistulas) while the proximal segment of the gut was perfused with pH 7.0 phosphate buffer at 2 mL/min for 90 minutes. Room air (n=three dogs) or methane (n=three dogs) was delivered into the distal gut as a 180-ml bolus at time 0. Sixty minutes after the start of the perfusion, 20 μCi of ^99mTc-DTPA (diethylenetriaminepentaacetic acid) was delivered as a bolus into the proximal segment of the gut. Intestinal transit was then measured by counting the radioactivity of 1 ml samples collected every 5 minutes from the diverted output of the mid-gut fistula. Intestinal transit was calculated by determining the area under the curve (AUC) of the cumulative percent recovery of the radioactive marker in the control (air administration) and experimental (methane administration) dogs. The square root values of the AUC (Sqrt AUC), where 0=no recovery by 30 minutes and 47.4=theoretical, instantaneous complete recovery by time 0, were compared for the control and experimental animals, using 2-way repeated measures ANOVA.
# IBS = settings: literature report (ref. 21); cited from earlier work
# [2] = tested on: irritable bowel syndrome (IBS) subjects; assay: Double-blind, randomized, placebo-controlled study of neomycin in IBS subjects (symptom questionnaire and lactulose breath test); format: in vivo, human; settings: for patient-reported bowel normalization / reduction in composite score (CS): mean ± S.E.
# Description: In a double-blind, randomized, placebo-controlled study, we confirm that an abnormal lactulose breath test is more prevalent in IBS than normal controls, and that antibiotic treatment in IBS leads to an improvement in symptoms and that this is based on antibiotic-induced normalization of breath test. […] This is another important step in linking SIBO and IBS.
# Study subjects were recruited by advertising in local newspapers, radio and IBS support groups throughout the greater Los Angeles area. To avoid referral bias, subjects were not recruited through the GI motility clinic or any gastroenterology practice based at Cedars-Sinai Medical Center. Subjects were included if they met Rome I criteria for IBS (7). […] Subjects were excluded if they had antibiotics within the previous three months, a previous lactulose breath test (LBT), or a history of diabetes, thyroid disease, intestinal surgery (except cholecystectomy or appendectomy), connective tissue disease, narcotic use or known gastrointestinal disease. Subjects with renal insufficiency, hearing impairment, probiotic use or allergy to aminoglycosides were also excluded. Approval from the institutional review board and written informed consent from the participating subjects were obtained.
# Subjects presented to the GI Motility Laboratory having fasted from 7:00 p.m. the night before. They were instructed not to ingest legumes or a heavy meal for dinner the night prior to evaluation. Good oral hygiene was recommended and smoking was not permitted on the day of testing.
# Prior to the LBT, subjects completed a symptom questionnaire asking them to grade nine IBS symptoms (abdominal pain, diarrhea, constipation, bloating, sense of incomplete evacuation, straining, urgency, mucus and gas) on a severity score of 0-5 as has been previously used and recommended (15-17). All questions were answered based on their recall of the preceding 7 days (17).
# Subjects then underwent a LBT by ingesting 10 g of lactulose (Inalco Spa, Milano, Italy, packaged by Xactdose Inc., South Beloit, Ill.) followed by 1-2 ounces of water after an initial baseline breath sample. Breath samples were then collected at 15 minute intervals for 180 minutes. End expiratory breath samples were taken to ensure alveolar gas sampling. Samples were analyzed for hydrogen, methane and carbon dioxide using a Model SC, Quintron gas chromatograph (Quintron Instrument Company, Milwaukee, Wis.). Carbon dioxide measurements were used to correct for the quality of alveolar sampling. Measurements were plotted graphically as previously described (12). Patients and investigators were blinded to the result of the breath test.
# All subjects were randomized by personnel not associated with the study to receive, in a double blind fashion, either neomycin (500 mg) (Teva pharmaceuticals, USA, Sellersville, Pa.) or matching placebo twice daily for 10 days. Seven days after completion of the antibiotic or placebo, subjects returned for a repeat questionnaire and LBT. A seven day follow up was chosen since in our experience the abnormal breath test in IBS can recur as early as two weeks after antibiotic normalization. As part of the follow up questionnaire, subjects were asked to subjectively rate the amount of improvement they experienced as a percent normalization of bowel function and repeated their perceived severity of the 9 bowel symptoms described earlier. Compliance was assessed by pill count. To comply with institutional review board requirements, follow-up LBT results could not be blinded so patients could seek appropriate medical therapy for their test result.
# At the completion of enrollment, all initial and follow-up breath tests were coded and randomized by personnel not involved in the interpretation of the test. A blinded reviewer (M.P.) interpreted the results and was asked to categorize the breath tests based on whether the test met the criteria for normal LBT. […]
compound,measurement,setting,value
C [methane],effect on rate of intestinal transit versus room air control,[1],substantially slowed the rate of intestinal transit
same,effect on rate of intestinal transit versus room air control,[1]; listed as Methane,slowed intestinal transit
Cc1ncc([N+](=O)[O-])n1CCO [flagyl],reduction of clinical symptoms in IBS versus placebo,IBS,superior to placebo
neomycin,patient-reported bowel normalization,[2]; 91 subjects who completed the question,40.1±5.3%
same,subjects achieving normalization of LBT,"[2]; abnormal baseline LBT, complete data, 8 out of 41",20%
same,self-reported percent bowel normalization,"[2]; abnormal baseline LBT, neomycin but not successful normalization of LBT",36.7±6.1%
same,percent reduction in CS,"[2]; abnormal baseline LBT, neomycin-treated group that did not achieve LBT normalization",34.4±6.2%
same,percent reduction in CS,"[2]; abnormal baseline LBT, neomycin-treated group with LBT normalization",61.7±9.4%
same,self-reported percent bowel normalization,"[2]; abnormal baseline LBT, normal follow up LBT after neomycin",75.0±6.4%
same,subjects with true clinical response (≧50% improvement in CS),"[2]; all subjects receiving neomycin, 24 out of 55",43%
same,odds ratio of true clinical response (≧50% improvement in CS) versus placebo,"[2]; all subjects, CI=1.05-6.3",4.3
same,reduction in composite score (CS),"[2]; intention-to-treat, all subjects (n=111), neomycin 500 mg twice daily for 10 days",35.0±0.7%
same,reduction in composite score (CS),[2]; subgroup with abnormal baseline LBT (n=93),35.4±0.8%
same,subjects with true clinical response (≧50% improvement in CS),"[2]; subgroup with abnormal breath tests, 21 out of 46",46%
same,odds ratio of true clinical response (≧50% improvement in CS) versus placebo,"[2]; subgroup with abnormal breath tests, CI=1.62-14.7",4.8
same,patient-reported bowel normalization,[2]; subgroup with abnormal initial breath tests,44.8±5.6%
same,reduction in composite score (CS) versus placebo,[2]; subjects with a normal baseline breath test,No difference
same,subjects with true clinical response (≧50% reported bowel normalization),[2]; subjects with abnormal initial breath test,55%
same,odds ratio of true clinical response (≧50% reported bowel normalization) versus placebo,"[2]; subjects with abnormal initial breath test, CI=2.5-39.7",9.6
same,subjects reporting more than 50% normalization of bowel function,"[2]; subjects with normal follow up LBT after neomycin, 7 out of 8",88%
same,odds ratio of true clinical response (≧50% reported bowel normalization) versus placebo,"[2]; whole group who answered (n=91), CI=1.7-14.4",4.8
same,subjects with true clinical response (≧50% reported bowel normalization),[2]; whole group who answered the question (n=91),50%
